Reference: PubChem BioAssay (NCI)
“And” between values parts separate entries of the source, which are not always exact repeats. Equal values may be shown once.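 Results reflect a 48-hour exposure of cells in 96-well plates to compound at five concentrations. Abbreviation: GI50, concentration required for 50% inhibition of growth. The concentration for full growth arrest is given as TGI.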

Assays:
Assay in all cases: NCI tumour cell line growth inhibition, 48 h
SF-539 CNS = tested on: SF-539 CNS
OVCAR-8 ovarian = tested on: OVCAR-8 ovarian
NCI-H226 lung = tested on: NCI-H226 lung
786-0 renal = tested on: 786-0 renal
K-562 leukemia = tested on: K-562 leukemia
SF-268 CNS = tested on: SF-268 CNS
NCI-H522 lung = tested on: NCI-H522 lung
CCRF-CEM leukemia = tested on: CCRF-CEM leukemia
KM12 colon = tested on: KM12 colon
SK-MEL-5 melanoma = tested on: SK-MEL-5 melanoma

| SMILES | TGI (SF-539 CNS) | TGI (OVCAR-8 ovarian) | TGI (NCI-H226 lung) | TGI (786-0 renal) | TGI (K-562 leukemia) | TGI (SF-268 CNS) | TGI (NCI-H522 lung) | TGI (CCRF-CEM leukemia) | TGI (KM12 colon) | TGI (SK-MEL-5 melanoma) | GI50 (SF-539 CNS) | GI50 (OVCAR-8 ovarian) | GI50 (NCI-H226 lung) | GI50 (786-0 renal) | GI50 (K-562 leukemia) | GI50 (SF-268 CNS) | GI50 (NCI-H522 lung) | GI50 (CCRF-CEM leukemia) | GI50 (KM12 colon) | GI50 (SK-MEL-5 melanoma) |
| --- | --- | --- | --- | --- | --- | --- | --- | --- | --- | --- | --- | --- | --- | --- | --- | --- | --- | --- | --- | --- |
| N[C@H]1C2C3CC4C5CC(C42)C1(c1ccccc1)C53 (stereo partly drawn) | > 100 µM | > 100 µM | > 100 µM | > 100 µM | > 100 µM | > 100 µM | > 100 µM | > 100 µM | > 100 µM | > 100 µM | – | – | – | – | – | – | – | – | – | – |
| Nc1cccc2c1C(=O)N(C1CCC(=O)NC1=O)C2=O (stereo not drawn) | > 100 µM | > 100 µM | > 100 µM | > 100 µM | > 100 µM | > 100 µM | > 100 µM | > 100 µM | > 100 µM | > 100 µM | > 100 µM | > 100 µM | > 100 µM | > 100 µM | > 100 µM | > 100 µM | > 100 µM | > 100 µM | > 100 µM | > 100 µM |
| CCOC(=O)c1cnc(SCc2ccc(Cl)c(Cl)c2)nc1N1CC1 | 12.3 µM | 30.2 µM | 18.9 µM | 14.1 µM | 14.8 µM | 12.2 µM | 6.88 µM | 28.1 µM | 12.5 µM | 12.6 µM | 3.3 µM | 3.6 µM | 5.01 µM | 3.24 µM | 1.15 µM | 3.05 µM | 2.23 µM | 2.82 µM | 3.13 µM | 3.39 µM |
| CC1(C)CC(=O)C2=C(C1)NC(SSC1=C(C#N)C(c3ccccc3)C3=C(CC(C)(C)CC3=O)N1)=C(C#N)C2c1ccccc1 (stereo not drawn) | 51 µg/mL | 57.4 µg/mL | 70.8 µg/mL | 49.5 µg/mL | 145 µg/mL | 53.7 µg/mL | 47.7 µg/mL | > 150 µg/mL | 49.7 µg/mL | 48.7 µg/mL | 26.9 µg/mL | 31.6 µg/mL | 32 µg/mL | 28.4 µg/mL | 42.3 µg/mL | 28 µg/mL | 26.1 µg/mL | 24.6 µg/mL | 26.2 µg/mL | 27.8 µg/mL |
| Cc1ccc(S(=O)(=O)NC(CCC(=O)Nc2ccc(Cl)cc2)C(=O)Nc2ccc(Cl)cc2)cc1 (stereo not drawn) | 1.54 µM | 8.62 µM | 5.67 µM | 5.69 µM | 6.3 µM | 8.04 µM | 7.01 µM | 7.22 µM | 6 µM | 3.94 µM | 0.21 µM | 0.724 µM | 0.841 µM | 0.726 µM | 0.0519 µM | 0.862 µM | 0.496 µM | 0.203 µM | 0.112 µM | 0.235 µM |
| COc1cc(CCc2cc(NC(=O)c3ccc(N4C[C@@H](C)N[C@@H](C)C4)cc3)n[nH]2)cc(OC)c1 | > 10 µM and 15.1 µM | > 10 µM and 25.7 µM | > 10 µM and 21.3 µM | > 10 µM and 20.4 µM | > 10 µM and 15.8 µM | > 10 µM and 20.7 µM | > 10 µM and 24.5 µM | > 10 µM and 18.3 µM | > 10 µM and 11 µM | > 10 µM and 12.7 µM | 6.6 µM and 4.08 µM | > 10 µM and 9.01 µM | – | > 10 µM and 6.16 µM | 6.89 µM and 4.18 µM | > 10 µM and 5.88 µM | > 10 µM and 9.95 µM | > 10 µM and 3.69 µM | 0.0759 µM and 0.107 µM | 9.72 µM and 3.83 µM |
| CC1=C(C(=O)Nc2ccc([N+](=O)[O-])cc2)C(c2ccco2)C(C(=O)Nc2ccc([N+](=O)[O-])cc2)=C(C)N1 | > 100 µM | > 100 µM | > 100 µM | > 100 µM | > 100 µM | > 100 µM | 64.3 µM | 51.2 µM | 33.9 µM | 93.4 µM | – | – | – | – | – | – | – | – | – | – |
| O=C(O)CN(c1ccc(Cl)cc1)S(=O)(=O)c1ccccc1 | > 100 µM | > 100 µM | > 100 µM | > 100 µM | > 100 µM | > 100 µM | > 100 µM | > 100 µM | > 100 µM | > 100 µM | – | – | – | – | – | – | – | – | – | – |
| O=C1C2=C(c3ccccc31)C(c1ccc(Cl)cc1)N1C(=O)CCSC1=N2 (stereo not drawn) | > 100 µM | – | > 100 µM | > 100 µM | > 100 µM | > 100 µM | > 100 µM | > 100 µM | > 100 µM | > 100 µM | – | – | – | – | – | – | – | – | – | – |
| COC1C=C(Nc2cccc(Cl)c2)C(=O)C1 (stereo not drawn) | > 100 µM | > 100 µM | > 100 µM | > 100 µM | > 100 µM | > 100 µM | > 100 µM | > 100 µM | > 100 µM | > 100 µM | – | – | – | – | – | – | – | – | – | – |
| O=[N+]([O-])c1ccc(Sc2ncccn2)c([N+](=O)[O-])c1 | 8.82 µM | 14 µM | 18.2 µM | 16.1 µM | 12.1 µM | 19.6 µM | 3.11 µM | 5.5 µM | 15.9 µM | 22.4 µM | 2.63 µM | 4.33 µM | 4.28 µM | 4.59 µM | 2.52 µM | 5.08 µM | 1.64 µM | 2.04 µM | 4.36 µM | 10.4 µM |
| COc1ccc(-c2cc(-c3ccc(Nc4nc(Nc5ccc(Cl)cc5)nc(Nc5ccc(Cl)cc5)n4)cc3)nc(N)c2C#N)cc1 | 4.15 µM | > 51.2 µM | 1.89 µM | 5.68 µM | 5.38 µM | 8.38 µM | 5.53 µM | > 27.6 µM | 4.24 µM | 3.65 µM | 2.02 µM | 2.12 µM | 0.676 µM | 2.24 µM | 1.61 µM | 2.88 µM | 1.75 µM | 0.929 µM | 1.95 µM | 1.78 µM |
| O=C(c1cccs1)c1c(C(F)(F)F)n([O-])c2ccc(C(F)(F)F)cc2[n+]1=O | 0.36 µM | 0.479 µM | 1.42 µM | 0.339 µM | 1.21 µM | 0.355 µM | 0.455 µM | 2.11 µM | 0.774 µM | 0.914 µM | 0.183 µM | 0.116 µM | 0.524 µM | 0.188 µM | 0.251 µM | 0.182 µM | 0.204 µM | 0.224 µM | 0.295 µM | 0.483 µM |
| O=C1C2=C(c3ccccc31)C(c1cccc(Cl)c1)NC(=S)N2 (stereo not drawn) | > 100 µM | > 100 µM | > 100 µM | > 100 µM | > 100 µM | > 100 µM | > 100 µM | > 100 µM | > 100 µM | > 100 µM | – | – | – | – | – | – | – | – | – | – |
| CCCCCCCCCCCCc1ccc(C(=O)/C=C/C(=O)O)cc1 | 3.33 µM | 12.9 µM | 3.14 µM | 4.05 µM | 5.74 µM | 8.28 µM | 4.73 µM | 5.29 µM | 25.9 µM | 28.7 µM | 1.73 µM | 3.44 µM | 1.59 µM | 2.03 µM | 2.13 µM | 2.64 µM | 1.98 µM | 0.547 µM | 11.7 µM | 14.5 µM |
